One block for each molecule: values may come before it. The source made the active and inactive calls. The calls are words filed in the database; no cut-off is given here.
How the values were obtained:
Muscle tissue [1] = experiment: Inhibition of physiological calcium release in mouse sarcoplasmic reticular skeletal muscle; assay type: functional, tissue-based
Mus musculus [2] = species: Mus musculus; experiment: Inhibition of Ca2+-induced calcium release in mouse sarcoplasmic reticular skeletal muscle; assay type: functional
Mus musculus [3] = species: Mus musculus; experiment: Inhibition of Ca2+-induced calcium release in mouse sarcoplasmic reticular skeletal muscle at 50 uM; assay type: functional
Muscle tissue [4] = experiment: Inhibition of physiological calcium release in mouse sarcoplasmic reticular skeletal muscle at 50 uM; assay type: functional, tissue-based
[5] = molecular target: Ryanodine receptor 1 (Homo sapiens) (UniProt P21817); experiment: Binding affinity to RyR1 by photolabeling experiment
Chain of Ryanodine receptor 1 (Homo sapiens) (P21817 whole entry): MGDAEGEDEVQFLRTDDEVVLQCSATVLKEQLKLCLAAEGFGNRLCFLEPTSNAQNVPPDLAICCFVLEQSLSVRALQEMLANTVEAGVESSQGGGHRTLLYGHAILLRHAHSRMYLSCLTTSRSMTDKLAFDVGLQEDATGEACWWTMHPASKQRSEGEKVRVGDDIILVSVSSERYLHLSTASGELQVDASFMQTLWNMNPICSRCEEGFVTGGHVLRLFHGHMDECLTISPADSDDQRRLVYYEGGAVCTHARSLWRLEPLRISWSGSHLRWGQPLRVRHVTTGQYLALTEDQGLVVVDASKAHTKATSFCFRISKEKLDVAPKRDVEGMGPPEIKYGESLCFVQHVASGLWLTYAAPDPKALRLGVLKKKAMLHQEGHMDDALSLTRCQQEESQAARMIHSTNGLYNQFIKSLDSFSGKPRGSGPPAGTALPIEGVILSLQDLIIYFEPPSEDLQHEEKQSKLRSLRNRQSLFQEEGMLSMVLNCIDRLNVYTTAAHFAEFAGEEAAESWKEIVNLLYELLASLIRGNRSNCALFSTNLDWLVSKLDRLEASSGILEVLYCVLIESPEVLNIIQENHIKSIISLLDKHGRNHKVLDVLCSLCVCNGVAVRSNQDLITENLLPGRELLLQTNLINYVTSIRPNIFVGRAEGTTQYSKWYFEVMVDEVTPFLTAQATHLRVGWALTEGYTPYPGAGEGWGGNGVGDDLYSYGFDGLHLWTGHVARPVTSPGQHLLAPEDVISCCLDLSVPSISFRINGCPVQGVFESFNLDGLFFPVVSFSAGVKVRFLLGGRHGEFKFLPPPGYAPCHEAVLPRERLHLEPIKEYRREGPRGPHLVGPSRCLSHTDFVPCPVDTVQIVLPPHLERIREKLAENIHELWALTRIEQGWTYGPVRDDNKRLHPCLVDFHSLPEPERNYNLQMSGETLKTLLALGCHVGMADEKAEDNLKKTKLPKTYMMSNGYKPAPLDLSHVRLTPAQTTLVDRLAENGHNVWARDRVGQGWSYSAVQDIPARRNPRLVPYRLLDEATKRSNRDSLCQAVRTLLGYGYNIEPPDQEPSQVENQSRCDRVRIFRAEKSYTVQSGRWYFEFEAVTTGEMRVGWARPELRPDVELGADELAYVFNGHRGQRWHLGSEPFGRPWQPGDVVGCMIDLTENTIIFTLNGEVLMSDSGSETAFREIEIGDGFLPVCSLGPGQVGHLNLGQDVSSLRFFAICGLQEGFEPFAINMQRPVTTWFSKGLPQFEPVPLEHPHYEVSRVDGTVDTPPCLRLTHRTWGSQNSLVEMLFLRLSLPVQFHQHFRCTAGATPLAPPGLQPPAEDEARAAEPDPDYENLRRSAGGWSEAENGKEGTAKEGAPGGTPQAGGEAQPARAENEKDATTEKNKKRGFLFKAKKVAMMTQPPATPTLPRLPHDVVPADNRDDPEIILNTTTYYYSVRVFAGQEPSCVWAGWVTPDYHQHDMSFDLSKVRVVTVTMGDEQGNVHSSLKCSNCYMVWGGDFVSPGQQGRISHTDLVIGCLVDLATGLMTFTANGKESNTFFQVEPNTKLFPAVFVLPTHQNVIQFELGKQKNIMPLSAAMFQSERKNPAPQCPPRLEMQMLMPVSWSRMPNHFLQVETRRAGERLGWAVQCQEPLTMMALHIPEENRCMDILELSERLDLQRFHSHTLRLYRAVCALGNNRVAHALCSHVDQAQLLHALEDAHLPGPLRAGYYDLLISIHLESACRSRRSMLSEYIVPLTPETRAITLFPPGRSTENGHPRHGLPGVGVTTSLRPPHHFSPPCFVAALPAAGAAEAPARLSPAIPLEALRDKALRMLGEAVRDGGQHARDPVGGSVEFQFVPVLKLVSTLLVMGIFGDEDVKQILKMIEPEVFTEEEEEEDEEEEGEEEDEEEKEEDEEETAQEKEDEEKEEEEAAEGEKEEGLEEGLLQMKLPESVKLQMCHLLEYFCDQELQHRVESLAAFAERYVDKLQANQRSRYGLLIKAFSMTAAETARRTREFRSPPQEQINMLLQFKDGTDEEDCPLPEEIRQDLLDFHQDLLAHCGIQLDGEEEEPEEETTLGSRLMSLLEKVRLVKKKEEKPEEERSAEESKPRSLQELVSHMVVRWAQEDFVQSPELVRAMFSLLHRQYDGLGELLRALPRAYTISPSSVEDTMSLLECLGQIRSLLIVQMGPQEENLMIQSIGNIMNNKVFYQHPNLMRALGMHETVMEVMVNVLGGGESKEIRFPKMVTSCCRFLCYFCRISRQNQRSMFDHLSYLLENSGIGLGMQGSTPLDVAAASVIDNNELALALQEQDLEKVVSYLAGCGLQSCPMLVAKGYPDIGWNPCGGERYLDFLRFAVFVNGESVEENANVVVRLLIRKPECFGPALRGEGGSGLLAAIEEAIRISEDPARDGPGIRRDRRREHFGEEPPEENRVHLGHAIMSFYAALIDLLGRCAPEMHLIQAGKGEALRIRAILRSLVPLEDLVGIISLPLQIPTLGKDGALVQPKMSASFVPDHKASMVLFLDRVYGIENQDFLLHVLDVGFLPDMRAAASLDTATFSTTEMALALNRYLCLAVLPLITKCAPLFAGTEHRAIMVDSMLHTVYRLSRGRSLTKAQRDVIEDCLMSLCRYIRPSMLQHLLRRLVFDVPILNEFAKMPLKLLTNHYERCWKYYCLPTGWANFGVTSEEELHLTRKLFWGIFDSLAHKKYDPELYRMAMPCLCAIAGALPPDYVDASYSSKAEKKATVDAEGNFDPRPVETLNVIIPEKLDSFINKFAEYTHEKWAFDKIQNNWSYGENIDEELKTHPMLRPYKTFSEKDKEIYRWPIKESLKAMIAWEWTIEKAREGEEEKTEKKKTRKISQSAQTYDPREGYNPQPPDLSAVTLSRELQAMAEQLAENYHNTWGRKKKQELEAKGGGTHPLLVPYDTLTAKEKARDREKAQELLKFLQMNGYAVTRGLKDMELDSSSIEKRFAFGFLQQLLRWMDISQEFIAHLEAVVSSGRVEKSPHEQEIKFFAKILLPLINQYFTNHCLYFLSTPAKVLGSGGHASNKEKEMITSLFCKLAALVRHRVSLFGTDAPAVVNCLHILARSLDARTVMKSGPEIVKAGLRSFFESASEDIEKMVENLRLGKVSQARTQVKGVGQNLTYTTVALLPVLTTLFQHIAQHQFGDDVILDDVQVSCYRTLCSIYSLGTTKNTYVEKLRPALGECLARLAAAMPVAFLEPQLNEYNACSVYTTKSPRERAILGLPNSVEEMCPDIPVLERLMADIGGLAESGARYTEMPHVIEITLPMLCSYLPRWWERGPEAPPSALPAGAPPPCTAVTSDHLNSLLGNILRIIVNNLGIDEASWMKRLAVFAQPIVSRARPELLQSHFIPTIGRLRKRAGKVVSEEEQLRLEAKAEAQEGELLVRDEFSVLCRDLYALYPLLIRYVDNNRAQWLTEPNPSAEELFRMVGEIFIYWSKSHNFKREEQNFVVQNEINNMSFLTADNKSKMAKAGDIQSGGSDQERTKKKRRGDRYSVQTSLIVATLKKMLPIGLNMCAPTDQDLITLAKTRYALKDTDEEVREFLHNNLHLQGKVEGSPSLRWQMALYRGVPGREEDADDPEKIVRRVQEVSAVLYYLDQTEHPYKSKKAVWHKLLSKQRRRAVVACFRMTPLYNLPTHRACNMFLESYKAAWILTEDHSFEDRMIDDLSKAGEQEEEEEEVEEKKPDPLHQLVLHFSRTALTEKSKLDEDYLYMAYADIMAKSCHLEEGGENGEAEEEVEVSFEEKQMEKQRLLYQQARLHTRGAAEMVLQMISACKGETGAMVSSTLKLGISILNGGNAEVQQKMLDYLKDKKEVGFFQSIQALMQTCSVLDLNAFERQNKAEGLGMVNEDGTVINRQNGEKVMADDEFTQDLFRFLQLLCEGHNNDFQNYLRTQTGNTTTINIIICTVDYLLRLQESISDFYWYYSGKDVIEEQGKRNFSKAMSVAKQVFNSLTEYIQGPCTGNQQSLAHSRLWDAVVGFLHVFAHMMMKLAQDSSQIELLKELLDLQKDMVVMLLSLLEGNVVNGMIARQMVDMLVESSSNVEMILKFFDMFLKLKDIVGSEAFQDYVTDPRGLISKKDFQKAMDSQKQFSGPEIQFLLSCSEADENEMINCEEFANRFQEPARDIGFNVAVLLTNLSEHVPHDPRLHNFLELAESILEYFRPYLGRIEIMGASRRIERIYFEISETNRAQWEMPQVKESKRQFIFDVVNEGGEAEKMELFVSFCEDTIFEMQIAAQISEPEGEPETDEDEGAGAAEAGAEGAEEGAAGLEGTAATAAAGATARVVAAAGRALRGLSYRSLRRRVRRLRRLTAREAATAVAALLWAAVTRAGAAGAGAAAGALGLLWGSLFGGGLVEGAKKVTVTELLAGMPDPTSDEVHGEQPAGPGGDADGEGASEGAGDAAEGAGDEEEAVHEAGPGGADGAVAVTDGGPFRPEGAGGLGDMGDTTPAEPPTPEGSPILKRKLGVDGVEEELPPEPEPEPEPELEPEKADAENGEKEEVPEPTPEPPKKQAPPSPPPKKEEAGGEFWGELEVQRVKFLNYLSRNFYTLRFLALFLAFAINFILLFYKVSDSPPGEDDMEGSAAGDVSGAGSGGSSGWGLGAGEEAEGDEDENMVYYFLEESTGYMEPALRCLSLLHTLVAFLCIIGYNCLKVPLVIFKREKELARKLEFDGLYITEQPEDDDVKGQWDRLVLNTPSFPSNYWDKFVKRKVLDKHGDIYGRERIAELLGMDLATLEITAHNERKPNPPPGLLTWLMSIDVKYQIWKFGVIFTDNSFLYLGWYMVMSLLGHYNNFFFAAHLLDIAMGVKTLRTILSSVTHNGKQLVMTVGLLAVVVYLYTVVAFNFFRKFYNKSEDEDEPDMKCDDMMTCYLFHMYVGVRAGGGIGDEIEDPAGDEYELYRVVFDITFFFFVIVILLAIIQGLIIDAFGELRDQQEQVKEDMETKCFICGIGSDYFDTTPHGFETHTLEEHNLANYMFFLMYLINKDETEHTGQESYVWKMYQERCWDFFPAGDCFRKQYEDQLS

[6] = tested as the 125I-labelled form

Structure (SMILES): [N-]=[N+]=NCc1cc(N=[N+]=[N-])cc(-c2ccc(/C=N/N3CC(=O)NC3=O)o2)c1
Activity (Muscle tissue [1]): Active
Activity (Mus musculus [2]): inactive

Structure (SMILES): [N-]=[N+]=Nc1ccc(-c2ccc(/C=N/N3CC(=O)NC3=O)o2)cc1
Activity (Mus musculus [3]): Active
Activity (Muscle tissue [4]): Active

Activity [5]: inactive
Structure (SMILES): [N-]=[N+]=NCc1cc(CN2C(=O)CN(/N=C/c3ccc(-c4ccc([N+](=O)[O-])cc4)o3)C2=O)cc(N=[N+]=[N-])c1
Activity (Muscle tissue [1]): Active

Activity [5, 6]: inactive
Structure (SMILES): [N-]=[N+]=Nc1cc(I)cc(CN2C(=O)CN(/N=C/c3ccc(-c4ccc([N+](=O)[O-])cc4)o3)C2=O)c1
Activity (Muscle tissue [1]; [6]): Active
Activity (Mus musculus [2]; [6]): inactive

Source: ChEMBL document CHEMBL1152776, “Facile synthesis of diazido-functionalized biaryl compounds as radioisotope-free photoaffinity probes by Suzuki-Miyaura coupling” (Bioorg Med Chem, 2009)
